Measured values from patent US7238677B2, “Prevention of urogenital infections” (Kimberly-Clark Worldwide, Inc., priority 2003, dated 2007).

Assays:
Format in all cases: cell-based
[1] = system: Candida albicans, ATCC 10231; assay: Adherence of Candida albicans to A431 cells; conditions: for number of Candida albicans adhering to A431 cells: A431 cells pre-incubated 30 minutes, colony count
Experimental: A culture of Candida albicans, ATCC 10231, was started as a frozen bead in peptone/glucose culture medium and incubated at 37° C. with shaking for three days before the experiment. A monolayer of A431 cells, ATCC CRL-1555, was grown on a 24-well tissue culture plate until confluent. Hyaluronic acid at concentration of 1 mg/ml PBS or 5 mg/ml PBS was added to the wells (1.2 ml/well), and the plates were incubated for 30 minutes at 35° C. A control plate of confluent A431 cells was also prepared that received 1.2 ml/well PBS and no hyaluronic acid. After the 30 min incubation, 0.7 ml of solution was removed from the wells and 0.5 ml of yeast suspension (1×10^6 cfu/ml) was added. After 2 hours of incubation, the supernatant was removed from the wells and the wells were rinsed thoroughly with PBS to remove all non-bound yeast. Then, 0.2 ml of 0.25% trypsin/EDTA was added to each well and the plates were incubated at 35° C. for 15 min. Trypsinization was stopped by adding 1 ml of 10% fetal bovine serum in culture medium. The trypsinized cell/yeast suspension was centrifuged and re-suspended in 1 ml of the medium. Serial dilutions of the Candida albicans/A431 cell suspension were plated on Sabouraud's dextrose agar plates and incubated overnight at 35° C. The number of colonies on each plate was counted and the number of yeast attached to the cells in each well was calculated.
All the data are expressed as mean ±SEM and were analyzed by one-way Analysis of Variance (ANOVA) followed by a Tukey-Kramer Multiple Comparisons Test. Differences were considered significant at the level of p<0.05.

[2] = system: E. coli with P family pili, ATCC 53505; assay: E. coli adhesion to A431 epithelial cells; conditions: A431 cells pre-incubated 30 minutes, OD 540 nm of 2 hr culture of bound bacteria
Experimental: Cultured A431 cells were used as a vaginal epithelial model. A431 cells were obtained from American Cell Type Culture Collection, catalog # CRL-1555. A monolayer of A431 cells was grown on a 24-well tissue culture plate until confluent.
E. coli with P family pili, ATCC 53505, were cultured in trypticase soy broth (TSB) overnight. Phosphate buffered saline (PBS, control) or hyaluronic acid (Sigma catalog # H 1876) solutions at a concentration of 1 mg/ml or 5 mg/ml in PBS was added to the A431 cell layers, using a volume of 1.2 ml/well. After incubation for 30 minutes at 37° C., 0.7 ml of solution was removed from the wells and 0.5 ml of the bacteria suspension was added. […] After 60 minutes, the supernatant in each well was removed and the wells were rinsed thoroughly with PBS to remove all non-bound bacteria. Trypticase soy broth was then added to wells, and the whole system was incubated at 37° C. with shaking for 2 hours. Bacterial concentration was measured by the detection of optical density of bacterial suspension at 540 nm.
(§1) All the data are expressed as mean±SEM and were analyzed by one-way Analysis of Variance (ANOVA) followed by a Tukey-Kramer Multiple Comparisons Test. Differences were considered significant at the level of p<0.05.

E. coli, ATCC 53505 = assay: Effect on E. coli growth (optical density at 540 nm); conditions: OD 540 nm at 1, 2 and 3 hours
Experimental: To test whether hyaluronic acid could influence cellular growth, E. coli, ATCC 53505 cells were cultured overnight in trypticase soy broth. The culture was then diluted to an optical density of 0.1 and hyaluronic acid (1 mg/ml or 5 mg/ml) in PBS was incubated with the E. coli suspension. A control comprising a suspension E. coli treated with PBS was also prepared. The test and control cells were incubated at 37° C. with shaking and the optical density of the bacterial suspensions at 540 nm was measured at 1, 2 and 3 hours after addition of the hyaluronic acid or PBS.
as §1

hyaluronic acid
number of Candida albicans adhering to A431 cells ([1]; 1 mg/ml in PBS): the effect was not so significant
number of Candida albicans adhering to A431 cells ([1]; 5 mg/ml in PBS): significantly inhibited
number of yeast colonies from treated A431 cells (FIG. 4) ([1]; versus PBS-treated A431 cells, concentration not given): fewer yeast colonies
number of E. coli attached to A431 cells ([2]; 1 mg/ml in PBS): lesser effect
number of E. coli attached to A431 cells ([2]; 5 mg/ml in PBS): significantly inhibited
effect on bacterial growth (E. coli, ATCC 53505; 1 mg/ml in PBS): neither of the hyaluronic acid solutions had any effect on bacterial growth
effect on bacterial growth (E. coli, ATCC 53505; 5 mg/ml in PBS): neither of the hyaluronic acid solutions had any effect on bacterial growth
